Assay results as given in patent publication US20050197350A1, “Novel quinoline, tetrahydroquinazoline, and pyrimidine derivatives and methods of treatment related to the use thereof” (TAISHO PHARMACEUTICAL CO., LTD., priority 2003, published 2005).

Test system: MCH receptors
Test: MCH receptor activity class (method not given)
Settings: MCH receptor; class by percent of control at 10^-7 M or IC50

| Compound | class |
| --- | --- |
| CN(C)c1nc(N[C@H]2CC[C@@H](NC(=S)NCc3ccco3)CC2)nc2c1CCCC2 [compound 1940] | 3 (Class 3 The value of percent of control at 10^−7 M was more than 60% or the value of IC50 was more than 200 nM.) |
| CN(C)c1nc(N[C@H]2CC[C@@H](NC(=S)Nc3ccc(F)cc3)CC2)nc2c1CCCC2 [compound 1941] | 3 (Class 3 The value of percent of control at 10^−7 M was more than 60% or the value of IC50 was more than 200 nM.) |
| CCCCCCNC(=S)N[C@H]1CC[C@@H](Nc2nc3c(c(N(C)C)n2)CCCC3)CC1 [compound 1942] | 3 (Class 3 The value of percent of control at 10^−7 M was more than 60% or the value of IC50 was more than 200 nM.) |
| CCC[C@H]1CC[C@H](c2ccc(NC(=S)N[C@H]3CC[C@@H](Nc4nc5c(c(N(C)C)n4)CCCC5)CC3)cc2)CC1 [compound 1943] | 3 (Class 3 The value of percent of control at 10^−7 M was more than 60% or the value of IC50 was more than 200 nM.) |
| CC(C)CNC(=S)N[C@H]1CC[C@@H](Nc2nc3c(c(N(C)C)n2)CCCC3)CC1 [compound 1944] | 3 (Class 3 The value of percent of control at 10^−7 M was more than 60% or the value of IC50 was more than 200 nM.) |
| COc1ccc(-c2ccccc2)cc1NC(=S)N[C@H]1CC[C@@H](Nc2nc3c(c(N(C)C)n2)CCCC3)CC1 [compound 1945] | 3 (Class 3 The value of percent of control at 10^−7 M was more than 60% or the value of IC50 was more than 200 nM.) |
| CN(C)c1nc(N[C@H]2CC[C@@H](NC(=S)NCc3ccc4c(c3)OCO4)CC2)nc2c1CCCC2 [compound 1946] | 3 (Class 3 The value of percent of control at 10^−7 M was more than 60% or the value of IC50 was more than 200 nM.) |
| Cc1cccc(NC(=S)N[C@H]2CC[C@@H](Nc3nc4c(c(N(C)C)n3)CCCC4)CC2)c1 [compound 1947] | 3 (Class 3 The value of percent of control at 10^−7 M was more than 60% or the value of IC50 was more than 200 nM.) |
| CSc1ccc(NC(=S)N[C@H]2CC[C@@H](Nc3nc4c(c(N(C)C)n3)CCCC4)CC2)cc1 [compound 1948] | 3 (Class 3 The value of percent of control at 10^−7 M was more than 60% or the value of IC50 was more than 200 nM.) |
| COc1ccc(NC(=S)N[C@H]2CC[C@@H](Nc3nc4c(c(N(C)C)n3)CCCC4)CC2)cc1 [compound 1949] | 3 (Class 3 The value of percent of control at 10^−7 M was more than 60% or the value of IC50 was more than 200 nM.) |
| C=C(C)CNC(=S)N[C@H]1CC[C@@H](Nc2nc3c(c(N(C)C)n2)CCCC3)CC1 [compound 1950] | 3 (Class 3 The value of percent of control at 10^−7 M was more than 60% or the value of IC50 was more than 200 nM.) |
| CNC(=S)N[C@H]1CC[C@@H](Nc2nc3c(c(N(C)C)n2)CCCC3)CC1 [compound 1951] | 3 (Class 3 The value of percent of control at 10^−7 M was more than 60% or the value of IC50 was more than 200 nM.) |
| CN(C)c1nc(N[C@H]2CC[C@@H](NC(=S)Nc3cccc([N+](=O)[O-])c3)CC2)nc2c1CCCC2 [compound 1952] | 3 (Class 3 The value of percent of control at 10^−7 M was more than 60% or the value of IC50 was more than 200 nM.) |
| CN(C)c1nc(N[C@H]2CC[C@@H](NC(=S)Nc3ccc([N+](=O)[O-])cc3)CC2)nc2c1CCCC2 [compound 1953] | 3 (Class 3 The value of percent of control at 10^−7 M was more than 60% or the value of IC50 was more than 200 nM.) |
| CN(C)c1nc(N[C@H]2CC[C@@H](NC(=S)NC(C)(C)CC(C)(C)C)CC2)nc2c1CCCC2 [compound 1954] | 3 (Class 3 The value of percent of control at 10^−7 M was more than 60% or the value of IC50 was more than 200 nM.) |
| CN(C)c1nc(N[C@H]2CC[C@@H](NC(=S)Nc3ccccc3)CC2)nc2c1CCCC2 [compound 1955] | 3 (Class 3 The value of percent of control at 10^−7 M was more than 60% or the value of IC50 was more than 200 nM.) |
| CCCNC(=S)N[C@H]1CC[C@@H](Nc2nc3c(c(N(C)C)n2)CCCC3)CC1 [compound 1956] | 3 (Class 3 The value of percent of control at 10^−7 M was more than 60% or the value of IC50 was more than 200 nM.) |
| CN(C)c1nc(N[C@H]2CC[C@@H](NC(=S)Nc3cccc(C(F)(F)F)c3)CC2)nc2c1CCCC2 [compound 1957] | 3 (Class 3 The value of percent of control at 10^−7 M was more than 60% or the value of IC50 was more than 200 nM.) |
| Cc1ccc(NC(=S)N[C@H]2CC[C@@H](Nc3nc4c(c(N(C)C)n3)CCCC4)CC2)cc1 [compound 1959] | 3 (Class 3 The value of percent of control at 10^−7 M was more than 60% or the value of IC50 was more than 200 nM.) |
| Cc1ccccc1NC(=S)N[C@H]1CC[C@@H](Nc2nc3c(c(N(C)C)n2)CCCC3)CC1 [compound 1960] | 3 (Class 3 The value of percent of control at 10^−7 M was more than 60% or the value of IC50 was more than 200 nM.) |
| CN(C)c1nc(N[C@H]2CC[C@@H](NC(=S)NC(C)(C)C)CC2)nc2c1CCCC2 [compound 1961] | 3 (Class 3 The value of percent of control at 10^−7 M was more than 60% or the value of IC50 was more than 200 nM.) |
| CN(C)c1nc(N[C@H]2CC[C@@H](NC(=S)Nc3ccccc3Br)CC2)nc2c1CCCC2 [compound 1963] | 3 (Class 3 The value of percent of control at 10^−7 M was more than 60% or the value of IC50 was more than 200 nM.) |

| Compound | class |
| --- | --- |
| CN(C)c1nc(N[C@H]2CC[C@@H](NC(=S)Nc3ccccc3Cl)CC2)nc2c1CCCC2 [compound 1964] | 3 (Class 3 The value of percent of control at 10^−7 M was more than 60% or the value of IC50 was more than 200 nM.) |
| CN(C)c1nc(N[C@H]2CC[C@@H](NC(=S)NCCc3ccccc3)CC2)nc2c1CCCC2 [compound 1965] | 3 (Class 3 The value of percent of control at 10^−7 M was more than 60% or the value of IC50 was more than 200 nM.) |
| CCc1ccc(NC(=S)N[C@H]2CC[C@@H](Nc3nc4c(c(N(C)C)n3)CCCC4)CC2)cc1 [compound 1966] | 3 (Class 3 The value of percent of control at 10^−7 M was more than 60% or the value of IC50 was more than 200 nM.) |
| CSc1ccccc1NC(=S)N[C@H]1CC[C@@H](Nc2nc3c(c(N(C)C)n2)CCCC3)CC1 [compound 1967] | 3 (Class 3 The value of percent of control at 10^−7 M was more than 60% or the value of IC50 was more than 200 nM.) |
| CN(C)c1nc(N[C@H]2CC[C@@H](NC(=S)Nc3ccccc3OC(F)(F)F)CC2)nc2c1CCCC2 [compound 1968] | 3 (Class 3 The value of percent of control at 10^−7 M was more than 60% or the value of IC50 was more than 200 nM.) |
| CN(C)c1nc(N[C@H]2CC[C@@H](NC(=S)Nc3ccccc3C(F)(F)F)CC2)nc2c1CCCC2 [compound 1969] | 3 (Class 3 The value of percent of control at 10^−7 M was more than 60% or the value of IC50 was more than 200 nM.) |
| CN(C)c1nc(N[C@H]2CC[C@@H](NC(=S)Nc3ccc(F)c(F)c3F)CC2)nc2c1CCCC2 [compound 1970] | 3 (Class 3 The value of percent of control at 10^−7 M was more than 60% or the value of IC50 was more than 200 nM.) |
| CN(C)c1nc(N[C@H]2CC[C@@H](NC(=S)Nc3cccc(Cl)c3Cl)CC2)nc2c1CCCC2 [compound 1971] | 3 (Class 3 The value of percent of control at 10^−7 M was more than 60% or the value of IC50 was more than 200 nM.) |
| CN(C)c1nc(N[C@H]2CC[C@@H](NC(=S)Nc3ccc(F)cc3F)CC2)nc2c1CCCC2 [compound 1972] | 3 (Class 3 The value of percent of control at 10^−7 M was more than 60% or the value of IC50 was more than 200 nM.) |
| COc1ccc(OC)c(NC(=S)N[C@H]2CC[C@@H](Nc3nc4c(c(N(C)C)n3)CCCC4)CC2)c1 [compound 1973] | 3 (Class 3 The value of percent of control at 10^−7 M was more than 60% or the value of IC50 was more than 200 nM.) |
| CN(C)c1nc(N[C@H]2CC[C@@H](NC(=S)Nc3c(F)cccc3F)CC2)nc2c1CCCC2 [compound 1974] | 3 (Class 3 The value of percent of control at 10^−7 M was more than 60% or the value of IC50 was more than 200 nM.) |
| CN(C)c1nc(N[C@H]2CC[C@@H](NC(=S)Nc3ccc([N+](=O)[O-])cc3Cl)CC2)nc2c1CCCC2 [compound 1975] | 3 (Class 3 The value of percent of control at 10^−7 M was more than 60% or the value of IC50 was more than 200 nM.) |
| CN(C)c1nc(N[C@H]2CC[C@@H](NC(=S)Nc3ccccc3OC(F)F)CC2)nc2c1CCCC2 [compound 1976] | 3 (Class 3 The value of percent of control at 10^−7 M was more than 60% or the value of IC50 was more than 200 nM.) |
| CN(C)c1nc(N[C@H]2CC[C@@H](NC(=S)Nc3cc(C(F)(F)F)ccc3F)CC2)nc2c1CCCC2 [compound 1977] | 3 (Class 3 The value of percent of control at 10^−7 M was more than 60% or the value of IC50 was more than 200 nM.) |
| CN(C)c1nc(N[C@H]2CC[C@@H](NC(=S)Nc3ccccc3F)CC2)nc2c1CCCC2 [compound 1978] | 3 (Class 3 The value of percent of control at 10^−7 M was more than 60% or the value of IC50 was more than 200 nM.) |
| CN(C)c1nc(N[C@H]2CC[C@@H](NC(=S)Nc3ccccc3I)CC2)nc2c1CCCC2 [compound 1979] | 3 (Class 3 The value of percent of control at 10^−7 M was more than 60% or the value of IC50 was more than 200 nM.) |
| CN(C)c1nc(N[C@H]2CC[C@@H](NC(=S)Nc3cccc(SC(F)(F)F)c3)CC2)nc2c1CCCC2 [compound 1980] | 3 (Class 3 The value of percent of control at 10^−7 M was more than 60% or the value of IC50 was more than 200 nM.) |
| CN(C)c1nc(N[C@H]2CC[C@@H](NC(=S)Nc3cc(Cl)cc(Cl)c3)CC2)nc2c1CCCC2 [compound 1981] | 3 (Class 3 The value of percent of control at 10^−7 M was more than 60% or the value of IC50 was more than 200 nM.) |
| CN(C)c1nc(N[C@H]2CC[C@@H](NC(=S)Nc3cc(F)cc(F)c3)CC2)nc2c1CCCC2 [compound 1982] | 3 (Class 3 The value of percent of control at 10^−7 M was more than 60% or the value of IC50 was more than 200 nM.) |
| CN(C)c1nc(N[C@H]2CC[C@@H](NC(=S)Nc3cccc(C#N)c3)CC2)nc2c1CCCC2 [compound 1983] | 3 (Class 3 The value of percent of control at 10^−7 M was more than 60% or the value of IC50 was more than 200 nM.) |
| CN(C)c1nc(N[C@H]2CC[C@@H](NC(=S)Nc3cccc(F)c3)CC2)nc2c1CCCC2 [compound 1984] | 3 (Class 3 The value of percent of control at 10^−7 M was more than 60% or the value of IC50 was more than 200 nM.) |
